Measurements published in patent US20160106708A1, “USE OF ANTIOXIDANTS FOR THE TREATMENT OF COGNITIVE AND BEHAVIOURAL DISORDERS IN INDIVIDUALS WITH FRAGILE X SYNDROME” (Servicio Andaluz de Salud, priority 2010, published 2016).

Tests used:
[1] = system: patients with Fragile X syndrome; conditions: cited from earlier work; for Efficacy on symptoms in patients with Fragile X Syndrome: published trials
[2] = human; cited from earlier work
children with Autism = conditions: 18 children with Autism; cited from earlier work
[3] = system: cytotoxicity induced by L-buthionine-sulfoximine (BSO); conditions: BSO causes decrease in intracellular glutathione; cited from earlier work
Fmr1-KO mouse = conditions: chronic treatment; cited from earlier work
FMR1-KO mice [4] = experiment: Raised cross-shaped maze (anxiety); assay type: in vivo, mouse; conditions: chronic treatment, 5-minute period, treated vs FMR1-KO without treatment, saline control and Tianeptine (Tianeptine group: FMR1-KO vs WT)
Excerpt: FIG. 2. Percentage permanence time in the open arm of the raised cross-shaped maze in a 5-minute period of time for the different treatments.
This test is used to determine the anxiety of the animal model, under baseline and treated conditions.

[5] = system: patients with Alzheimer's disease; conditions: cited from earlier work
FMR1-KO mice [6] = experiment: Level of lipid peroxidation (TBARS) in cerebral membranes; assay type: in vivo, mouse; conditions: FMR1-KO vs WT under treatment; tianeptine: both genotypes vs saline control
Excerpt: FIG. 4. Concentration of TBARS in mouse cerebral membranes (nmol/mg protein).

FMR1-KO mice [7] = experiment: Open field, locomotive activity (hyperactivity); assay type: in vivo, mouse; conditions: chronic treatment, 15-minute period, treated vs FMR1-KO without treatment, saline control and Tianeptine (tianeptine group: FMR1-KO vs WT)
Excerpt: FIG. 1. Open-field distance travelled by the mice in a 15-minute period of time for the different treatments.
In all the groups of WT mice, locomotion was maintained without significant variations, about 4000 cm of distance travelled (FIG. 1); this test was used to check the mice's hyperactivity.

FMR1-KO mice [8] = experiment: Oxidised glutathione (GSSG, % of GSH) in brain extract; assay type: in vivo, mouse; conditions: vs saline and naive controls
Excerpt: FIG. 6. Percentage of GSSG with respect to GSH in mouse brain extract. FMR1-KO (n=8): black bars and WT (n=9): white bars. *p<0.05 FMR1-KO vs. WT. # p<0.05 FMR1-KO vs. FMR1-KO. † p<0.05 WT vs. WT.

FMR1-KO mice [9] = experiment: Reduced glutathione (GSH) in brain extract; assay type: in vivo, mouse; conditions: vs saline control
Excerpt: FIG. 5. Concentration of GSH in mouse brain extract (μmol/g protein). FMR1-KO (n=8): black bars and WT (n=9): white bars. *p<0.05 FMR1-KO vs. WT. # p<0.05 FMR1-KO vs. FMR1-KO. † p<0.05 WT vs. WT.

[10] = system: transgenic mouse model for Alzheimer's disease; conditions: cited from earlier work
FMR1-KO mice [11] = experiment: Measurement of corticosterone in serum; assay type: in vivo, mouse; conditions: FMR1-KO mice vs WT controls under the same treatment
Excerpt: FIG. 3. Concentration of corticosterone in mouse serum (ng/ml).

COc1cc2c(cc1OC)C(=O)C(CC1CCN(Cc3ccccc3)CC1)C2 (centres unmarked) [donezepil]
Efficacy on symptoms in patients with Fragile X Syndrome [1]: significantly improves cognitive and behavioural functions

O=C1O[C@H]([C@@H](O)CO)C(O)=C1O [Vitamin C, Ascorbic Acid]
Half-life [2]: 16 days
Effect on symptoms of Autism (children with Autism): significant decrease of some symptoms

CC(=O)O[C@H](CC(=O)[O-])C[N+](C)(C)C [L-acetylcarnitine]
Efficacy on symptoms in patients with Fragile X Syndrome [1]: efficacy in reducing hyperactivity and improving social relations

Cc1c(C)c2c(c(C)c1O)CC[C@@](C)(CCC[C@H](C)CCC[C@H](C)CCCC(C)C)O2 [Vitamin E, alpha-Tocopherol]
Protection against BSO-induced cytotoxicity [3]: significant protection
Effect on parameters characteristic of the syndrome (hyperactivity, anxiety disorder, cognitive deficit) (Fmr1-KO mouse): normalising several parameters characteristic of the syndrome
Percentage permanence time in the open arm of the raised cross-shaped maze (FMR1-KO mice [4]): lower (p<0.05)
Effect on mental deterioration [5]: capable of delaying mental deterioration
Levels of TBARS in cerebral membranes (FMR1-KO mice [6]): normalises the levels of TBARS
Open-field total distance travelled (FMR1-KO mice [7]): lower (p<0.05)
Percentage of GSSG with respect to GSH in brain extract (FMR1-KO mice [8]): normalised the values of GSSG
GSH in brain extract (FMR1-KO mice [9]): higher values of GSH
Lipid peroxidation and amyloid deposition [10]: reduced lipid peroxidation and amyloid deposition
Concentration of corticosterone in serum (FMR1-KO mice [11]): maintained the same levels of corticosterone as compared to the WT controls

CC12CC3CC(C)(C1)CC(N)(C3)C2 [Nemantine]
Patients showing symptoms of improvement ([1]; of 6 affected patients): 4

CN1c2ccccc2C(NCCCCCCC(=O)O)c2ccc(Cl)cc2S1(=O)=O (centres unmarked) [Tianeptine]
Open-field total distance travelled (FMR1-KO mice [7]): greater total travelled distance

COc1ccc2[nH]cc(CCNC(C)=O)c2c1 [Melatonin]
Effect on parameters characteristic of the syndrome (hyperactivity, anxiety disorder, cognitive deficit) (Fmr1-KO mouse): normalising several parameters characteristic of the syndrome
Percentage permanence time in the open arm of the raised cross-shaped maze (FMR1-KO mice [4]): lower (p<0.05)
Levels of TBARS in cerebral membranes (FMR1-KO mice [6]): normalises the levels of TBARS
Efficacy on symptoms in patients with Fragile X Syndrome [1]: reduce the sleep problems
Open-field total distance travelled (FMR1-KO mice [7]): lower (p<0.05)
Percentage of GSSG with respect to GSH in brain extract (FMR1-KO mice [8]): normalised the values of GSSG
GSH in brain extract (FMR1-KO mice [9]): higher values of GSH
Concentration of corticosterone in serum (FMR1-KO mice [11]): maintained the same levels of corticosterone as compared to the WT controls

COC(=O)N1CC[C@@H]2[C@H]1CCC[C@@]2(O)C#Cc1cccc(C)c1 [AFQ056]
Efficacy on symptoms in patients with Fragile X Syndrome [1]: demonstrates its effectiveness on the behavioural and learning problems

CN1CC(=O)NC1=NC(=O)Nc1cccc(Cl)c1 [Fenoban]
Efficacy on symptoms in patients with Fragile X Syndrome [1]: efficacy
